Legend:
Format in all cases: in vivo
barnyardgrass (Ec) [1] = experiment: Test Example 1: herbicidal effects by paddy field soil treatment; settings: 100 g of the active ingredient per 10 ares, 21st day after the application, index 0-5 of Table 47;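 note: grade of growth control; 5 = at least 90%; 4 = 70 to 90%; 3 = 50 to 70%; 2 = 30 to 50%; 1 = 10 to 30%; 0 = under 10%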
Outline: (§1)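 Greenhouse pot test in flooded paddy soil, dosed at 100 g a.i. per 10 ares; effect scored on day 21.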

bulrush (Sc) = experiment: as above; settings: 100 g of the active ingredient per 10 ares, 21st day after the application, index 0-5 of Table 47;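 note: grade of growth control; 5 = at least 90%; 4 = 70 to 90%; 3 = 50 to 70%; 2 = 30 to 50%; 1 = 10 to 30%; 0 = under 10%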
Outline: as §1

monochoria (Mo) = experiment: as above; settings: 100 g of the active ingredient per 10 ares, 21st day after the application, index 0-5 of Table 47;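 note: grade of growth control; 5 = at least 90%; 4 = 70 to 90%; 3 = 50 to 70%; 2 = 30 to 50%; 1 = 10 to 30%; 0 = under 10%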
Outline: as §1

Digitaria ciliaris (Di) = experiment: Test Example 2: herbicidal effects by upland field soil treatment; settings: 100 g of the active ingredient per 10 ares, 21st day after the application, index 0-5 of Table 47;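 note: grade of growth control; 5 = at least 90%; 4 = 70 to 90%; 3 = 50 to 70%; 2 = 30 to 50%; 1 = 10 to 30%; 0 = under 10%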
Text: (§2) (Test on Herbicidal Effects by Upland Field Soil Treatment)

barnyardgrass (Ec) [2] = experiment: as above; settings: 100 g of the active ingredient per 10 ares, 21st day after the application, index 0-5 of Table 47
Text: as §2

[3] = test system: common lambsquarters (Ch); experiment: as above; settings: 100 g of the active ingredient per 10 ares, 21st day after the application, index 0-5 of Table 47
Text: as §2

pale smartweed (Po) [4] = experiment: as above; settings: 100 g of the active ingredient per 10 ares, 21st day after the application, index 0-5 of Table 47
Text: as §2

rice flatsedge (Ci) [5] = experiment: as above; settings: 100 g of the active ingredient per 10 ares, 21st day after the application, index 0-5 of Table 47
Text: as §2

slender amaranth (Am) [6] = experiment: as above; settings: 100 g of the active ingredient per 10 ares, 21st day after the application, index 0-5 of Table 47
Text: as §2

Diaitaria ciliaris (Di) = experiment: Test Example 3: herbicidal effects by upland field foliage treatment; parameters: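 grade of growth control; 5 = at least 90%; 4 = 70 to 90%; 3 = 50 to 70%; 2 = 30 to 50%; 1 = 10 to 30%; 0 = under 10%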; settings: 100 g of the active ingredient per 10 ares, evaluated on the 14th day after treatment
Outline: (§3)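 Foliage-applied treatment on weeds pre-grown for 2 weeks in a greenhouse. Pots held sand (surface area 120 cm^2); seeds were sown and covered with soil. Evaluation: graded herbicidal effect 14 days post-application.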

barnyardgrass (Ec) [7] = experiment: as above; parameters: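 grade of growth control; 5 = at least 90%; 4 = 70 to 90%; 3 = 50 to 70%; 2 = 30 to 50%; 1 = 10 to 30%; 0 = under 10%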; settings: 100 g of the active ingredient per 10 ares, evaluated on the 14th day after treatment
Outline: as §3

[8] = test system: common lambsquarters (Ch); experiment: as above; parameters: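 grade of growth control; 5 = at least 90%; 4 = 70 to 90%; 3 = 50 to 70%; 2 = 30 to 50%; 1 = 10 to 30%; 0 = under 10%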; settings: 100 g of the active ingredient per 10 ares, evaluated on the 14th day after treatment
Outline: as §3

pale smartweed (Po) [9] = experiment: as above; parameters: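 grade of growth control; 5 = at least 90%; 4 = 70 to 90%; 3 = 50 to 70%; 2 = 30 to 50%; 1 = 10 to 30%; 0 = under 10%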; settings: 100 g of the active ingredient per 10 ares, evaluated on the 14th day after treatment
Outline: as §3

rice flatsedge (Ci) [10] = experiment: as above; parameters: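 grade of growth control; 5 = at least 90%; 4 = 70 to 90%; 3 = 50 to 70%; 2 = 30 to 50%; 1 = 10 to 30%; 0 = under 10%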; settings: 100 g of the active ingredient per 10 ares, evaluated on the 14th day after treatment
Outline: as §3

slender amaranth (Am) [11] = experiment: as above; parameters: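 grade of growth control; 5 = at least 90%; 4 = 70 to 90%; 3 = 50 to 70%; 2 = 30 to 50%; 1 = 10 to 30%; 0 = under 10%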; settings: 100 g of the active ingredient per 10 ares, evaluated on the 14th day after treatment
Outline: as §3

| SMILES | Herbicidal effects Ec (barnyardgrass (Ec) [1]) | Herbicidal effects Sc (bulrush (Sc)) | Herbicidal effects Mo (monochoria (Mo)) | Herbicidal effects Di (Digitaria ciliaris (Di)) | Herbicidal effects Ec (barnyardgrass (Ec) [2]) | Herbicidal effects Ch [3] | Herbicidal effects Po (pale smartweed (Po) [4]) | Herbicidal effects Ci (rice flatsedge (Ci) [5]) | Herbicidal effects Am (slender amaranth (Am) [6]) | Herbicidal effects Di (Diaitaria ciliaris (Di)) | Herbicidal effects Ec (barnyardgrass (Ec) [7]) | Herbicidal effects Ch [8] | Herbicidal effects Po (pale smartweed (Po) [9]) | Herbicidal effects Ci (rice flatsedge (Ci) [10]) | Herbicidal effects Am (slender amaranth (Am) [11]) |
| --- | --- | --- | --- | --- | --- | --- | --- | --- | --- | --- | --- | --- | --- | --- | --- |
| C#CC(C)Oc1cc(-c2cc(C)c(C(F)(F)F)n(C)c2=O)c(F)cc1Cl (stereo not drawn) [1-78] | 5 | 5 | 5 | 5 | 5 | 5 | 5 | 5 | 5 | 5 | 5 | 5 | 5 | 5 | 5 |
| Cc1cc(-c2cc(OC(C)C)c(Cl)cc2F)c(=O)n(C)c1C(F)(F)F [1-80] | 5 | 5 | 5 | 5 | 5 | 5 | 5 | 5 | 5 | 5 | 5 | 5 | 5 | 5 | 5 |
| COC(=O)COc1cc(-c2ccc(C(F)(F)F)n(C)c2=O)c(F)cc1Cl [1-99] | 5 | 5 | 5 | 5 | 5 | 5 | 5 | 5 | 5 | 5 | 5 | 5 | 5 | 5 | 5 |
| Cn1c(C(F)(F)F)ccc(-c2cc(OCC(=O)OC3CCCC3)c(Cl)cc2F)c1=O [1-102] | 5 | 5 | 5 | 5 | 5 | 5 | 4 | 5 | 5 | 5 | 5 | 5 | 5 | 5 | 5 |
| CCCOC(=O)COc1cc(-c2ccc(C(F)(F)F)n(C)c2=O)c(F)cc1Cl [1-104] | 5 | 5 | 5 | 5 | 5 | 5 | 5 | 5 | 5 | 5 | 5 | 5 | 5 | 5 | 5 |
| Cn1c(C(F)(F)F)ccc(-c2cc(OCC(=O)O)c(Cl)cc2F)c1=O [1-105] | 5 | 5 | 5 | 5 | 5 | 5 | 5 | 5 | 5 | 5 | 5 | 5 | 5 | 5 | 5 |
| Cn1c(C(F)(F)F)ccc(-c2cc(C3OCCO3)c(Cl)cc2F)c1=O [1-133] | 5 | 5 | 5 | 5 | 5 | 5 | 5 | 5 | 5 | 5 | 5 | 5 | 5 | 5 | 5 |
| Cn1c(C(F)(F)F)ccc(-c2cc(CO)c(Cl)cc2F)c1=O [1-135] | 5 | 5 | 5 | 5 | 5 | 5 | 5 | 5 | 5 | 5 | 5 | 5 | 5 | 5 | 5 |
| CCS(=O)(=O)N(C)c1cc(-c2ccc(C(F)(F)F)n(C)c2=O)c(F)cc1Cl [1-140] | 5 | 5 | 5 | 5 | 5 | 5 | 5 | 5 | 5 | 5 | 4 | 5 | 5 | 5 | 5 |
| Cn1c(C(F)(F)F)ccc(-c2cc(C(=O)[O-])c(Cl)cc2F)c1=O.[Na+] [1-144] | 5 | 5 | 5 | 5 | 5 | 5 | 5 | 5 | 5 | 5 | 5 | 5 | 5 | 5 | 5 |
| CCCCOC(=O)COc1cc(-c2ccc(C(F)(F)F)n(C)c2=O)c(F)cc1Cl [1-148] | 5 | 5 | 5 | 5 | 5 | 5 | 5 | 5 | 5 | 5 | 5 | 5 | 5 | 5 | 5 |
| CCCCCCOC(=O)COc1cc(-c2ccc(C(F)(F)F)n(C)c2=O)c(F)cc1Cl [1-149] | 5 | 5 | 5 | 5 | 5 | 5 | 5 | 5 | 5 | 5 | 5 | 5 | 5 | 5 | 5 |
| CC=CCOc1cc(-c2ccc(C(F)(F)F)n(C)c2=O)c(F)cc1Cl [1-152] | 5 | 5 | 5 | 5 | 5 | 5 | 5 | 5 | 5 | 5 | 5 | 5 | 5 | 5 | 5 |
| COC(=O)c1cc(-c2ccc(C(F)(F)F)n(C)c2=O)c(F)cc1Cl [1-157] | 5 | 5 | 5 | 5 | 5 | 5 | 5 | 5 | 5 | 5 | 5 | 5 | 5 | 5 | 5 |
| CC(Oc1cc(-c2ccc(C(F)(F)F)n(C)c2=O)c(F)cc1Cl)C1CC1 (stereo not drawn) [1-161] | 5 | 5 | 5 | 5 | 5 | 5 | 5 | 5 | 5 | 5 | 5 | 5 | 5 | 5 | 5 |
| CCOCCOc1cc(-c2ccc(C(F)(F)F)n(C)c2=O)c(F)cc1Cl [1-163] | 5 | 5 | 5 | 5 | 5 | 5 | 5 | 5 | 5 | 5 | 5 | 5 | 5 | 5 | 5 |
